Type in all cases: cell-based
One experiment addresses T1, MCT4 (Homo sapiens, UniProt O15427).
T1 construct: Cell line MDA-MB-231 (MCT4 expressing human triple negative breast cancer cell line); endogenous in cells; host or cells: MDA-MB-231 human triple negative breast cancer cells
T1 sequence (O15427 2-465 limits assumed): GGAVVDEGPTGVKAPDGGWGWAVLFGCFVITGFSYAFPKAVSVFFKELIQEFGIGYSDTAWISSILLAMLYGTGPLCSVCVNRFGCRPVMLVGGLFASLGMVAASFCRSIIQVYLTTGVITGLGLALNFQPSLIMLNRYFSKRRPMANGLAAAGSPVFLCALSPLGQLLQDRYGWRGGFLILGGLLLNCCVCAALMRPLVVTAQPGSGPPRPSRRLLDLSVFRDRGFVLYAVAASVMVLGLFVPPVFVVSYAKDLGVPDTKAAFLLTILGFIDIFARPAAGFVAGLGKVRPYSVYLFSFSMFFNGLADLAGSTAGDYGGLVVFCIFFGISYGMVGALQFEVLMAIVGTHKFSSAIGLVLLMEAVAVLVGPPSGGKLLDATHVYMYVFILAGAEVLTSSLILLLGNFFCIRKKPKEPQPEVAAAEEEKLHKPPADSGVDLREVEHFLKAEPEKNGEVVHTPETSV
T1 sequence (P35613 140-385 partner limits assumed): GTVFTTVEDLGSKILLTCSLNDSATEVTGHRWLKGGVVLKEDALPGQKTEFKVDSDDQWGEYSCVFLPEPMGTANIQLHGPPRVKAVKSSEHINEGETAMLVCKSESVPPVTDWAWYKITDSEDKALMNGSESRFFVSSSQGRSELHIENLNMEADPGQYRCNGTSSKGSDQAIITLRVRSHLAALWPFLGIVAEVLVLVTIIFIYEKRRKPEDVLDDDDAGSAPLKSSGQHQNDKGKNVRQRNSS
The experiment is described as follows: MCT lactate inhibition assay, MCT4 in MDA-MB-231. The following applies: MDA-MB-231 cells. The procedure:
(§1) Cell line MDA-MB-231 (MCT4 expressing human triple negative breast cancer cell line), cell line MCF-7 (MCT1 expressing estrogen receptor positive human breast cancer cell line), and cell line 4T1 (MCT1 expressing metastatic murine breast cancer cell line) were used for testing the in vitro cytotoxicity of compounds 1-d, 2, and 3 using the MTT assay available from ThermoFisher Scientific. In addition, Compounds 1-d, 2, and 3 were also evaluated for MCT1 inhibition activity in RBE4 (MCT1 expressing rat brain endothelial 4 cell line) and MCT4 inhibition activity in MDA-MB-231 cell lines by measuring the IC50 values using the MCT lactate inhibition assays (Gurrapu S, Jonnalagadda S K, Alam M A, Nelson G L, Sneve M G, Drewes L R, Venkatram R. Mereddy. Monocarboxylate transporter 1 inhibitors as potential anti-cancer agents. ACS. Med. Chem. Lett., 2015, 6, 558-561.).

For experiment [1], the system named is 4T1 (MCT1 expressing metastatic murine breast cancer cell line). The experiment is described as follows: MTT in vitro cytotoxicity assay, 4T1. The conditions noted are these: Mus musculus, 4T1 cells. On the procedure: as §1
The subject of experiment [2] is MCF-7 (MCT1 expressing estrogen receptor positive human breast cancer cell line). The experiment is described as follows: MTT in vitro cytotoxicity assay, MCF-7. The conditions noted are these: MCF7, MCF-7 cells. On the procedure:
as §1

The next experiment addresses T2, MCT1 (Rattus norvegicus, UniProt P53987).
T2 construct: endogenous in cells; host or cells: RBE4 rat brain endothelial cells
T2 sequence (P53987 1-494): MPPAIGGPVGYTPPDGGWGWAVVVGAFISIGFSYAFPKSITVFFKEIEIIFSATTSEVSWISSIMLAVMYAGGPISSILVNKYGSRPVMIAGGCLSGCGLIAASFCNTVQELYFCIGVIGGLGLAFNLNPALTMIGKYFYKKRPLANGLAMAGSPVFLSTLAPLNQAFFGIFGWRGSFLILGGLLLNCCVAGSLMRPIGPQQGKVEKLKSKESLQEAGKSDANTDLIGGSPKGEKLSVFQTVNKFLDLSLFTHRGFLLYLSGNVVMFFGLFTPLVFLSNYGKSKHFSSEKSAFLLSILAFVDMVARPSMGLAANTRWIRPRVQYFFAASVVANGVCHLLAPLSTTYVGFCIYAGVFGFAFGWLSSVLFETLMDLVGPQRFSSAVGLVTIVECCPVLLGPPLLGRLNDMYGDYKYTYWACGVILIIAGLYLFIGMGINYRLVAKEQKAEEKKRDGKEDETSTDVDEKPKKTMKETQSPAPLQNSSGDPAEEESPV
T2 sequence (P26453 140-388 partner limits assumed): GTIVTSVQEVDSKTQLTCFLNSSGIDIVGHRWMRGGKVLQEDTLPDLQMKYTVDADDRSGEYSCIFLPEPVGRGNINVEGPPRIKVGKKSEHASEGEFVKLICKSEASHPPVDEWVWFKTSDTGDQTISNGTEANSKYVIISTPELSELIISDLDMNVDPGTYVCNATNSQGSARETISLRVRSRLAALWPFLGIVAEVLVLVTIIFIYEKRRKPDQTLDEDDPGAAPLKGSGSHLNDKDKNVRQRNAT
The experiment is described as follows: MCT lactate inhibition assay, MCT1 in RBE4. The conditions noted are these: RBE4 rat brain endothelial cells. On the procedure: as §1

Experiment [3] has as its system MDA-MB-231 (MCT4 expressing human triple negative breast cancer cell line). The experiment is described as follows: MTT in vitro cytotoxicity assay, MDA-MB-231. The following applies: MDA-MB-231 cells. The procedure: as §1

The values below come from patent publication US20190135747A1, “INDOLE AND INDAZOLE CYANOCINNAMATE COMPOUNDS AND THERAPEUTIC USES THEREOF” (Regents of the University of Minnesota, priority 2016, published 2019).

In general, IC50 refers to the midpoint of a concentration-inhibition curve. The low end stands for inhibition by little substance, the high end for a need for much substance. Take `CN(C)c1ccc(-n2cc(/C=C(\C#N)C(=O)O)c3ccccc32)cc1` [Compound 1-d]: the IC50 was 0.02 ± 0.01 µM against MCT4; 65.4 ± 4.26 µM in experiment [1]; greater than 250 µM in experiment [2]; 0.07 ± 0.02 µM on MCT1; greater than 250 µM in experiment [3].

In the case of `N#C/C(=C\c1cn(-c2ccc(NC(=O)Nc3ccc(Cl)c(C(F)(F)F)c3)cc2)c2ccccc12)C(=O)O` [Compound 2], the half-inhibitory concentration (IC50) on MCT4 is 0.57 ± 0.05 µM; in experiment [1], 76.5 ± 4.86 µM; in experiment [2], 41.6 ± 20.8 µM; against MCT1, 0.47 ± 0.05 µM; in experiment [3], 88.1 ± 17.2 µM.

Take `N#C/C(=C\c1cn(-c2ccc(NC(=O)c3ccc(NC(=O)Nc4ccc(Cl)c(C(F)(F)F)c4)cc3)cc2)c2ccccc12)C(=O)O` [Compound 3]: the half-inhibitory concentration (IC50) at MCT4 was 0.14 ± 0.04 µM; in experiment [1], greater than 250 µM; in experiment [2], greater than 250 µM; against MCT1, 0.11 µM; in experiment [3] it was greater than 250 µM.
